Values after ≈ are worked out from the molar mass of the structure shown. Where a SMILES comes first, the peptide text is derived from it. Primed or numbered codes have the meaning given here. Where no end group is shown, it is not given here. Linker = not defined here; FITC′ = not defined here
Legend:
[1] = Further release studies of linker-FITC peptides from surface under different temperatures and pH; type: physicochemical
Protocol: Further release studies were carried out to ascertain the strength of adherence of the peptides RKLPDA (SEQ ID NO: 12), RKLPDARKLPDA (SEQ ID NO: 13) and EEEEEEE (SEQ ID NO: 14) to the surface under different temperatures and pH. Each peptide comprised a linker-FITC sequence for fluorescence. Surfaces were coated with peptide as described for FIG. 1. The peptide-coated disks were incubated in PBS or in a balanced buffer at a set pH. Aliquots of the solution surrounding the surface were taken out at set time points and the fluorescence of the peptide in the solution monitored to establish the rate of peptide diffusion from the disk into the surrounding solution.

P. aeruginosa = type: cell-based
Protocol: (§1) The antibacterial activity of various amino acid sequences was tested against S. aureus, P. aeruginosa and E. coli.

E. coli = type: cell-based
Protocol: as §1

S. aureus = type: cell-based
Protocol: as §1

[2] = Binder-surface adherence of FITC-labelled binder peptide, fluorescence microscopy; type: physicochemical; conditions: hydroxyapatite disks and titanium squares, pH 7, room temperature, washed before imaging
Source text: This work established that the binder peptides interact with the surfaces

[3] = Release study of FITC peptide from hydroxyapatite disk into PBS (fluorescence); type: physicochemical
Protocol: A release study was carried out to ascertain the strength of adherence of the DDDDDDD (SEQ ID NO: 15)-Linker-FITC peptide to the hydroxyapatite surface. Disks of hydroxyapatite were incubated in 1 mg/ml peptide solutions for 1 hour and then washed thoroughly with PBS. The disk was then placed into a cuvette and surrounded with PBS solution (2 ml). The fluorescence of the solution around the disk was measured to ascertain the rate of peptide diffusion from the disk into the surrounding solution.

[4] = room temperature, balanced buffer pH 9 (FIG. 5)
[5] = room temperature, balanced pH 7 buffer (FIG. 4)

Molecule	Minimum inhibitory concentration (MIC) P. aeruginosa (P. aeruginosa)	Minimum inhibitory concentration (MIC) E. coli (E. coli)	Minimum inhibitory concentration (MIC) S. aureus (S. aureus)	other results
RKLPDA (also: linker-FITC, site not given here)	none	none	none	release of peptide from surface [1, 4]: not released; release of peptide from surface [1, 5]: not released
RLYLRIGRR [RLYLRIGRR]	2000 µg/mL	250 µg/mL	500 µg/mL	
RRIYGRGYIRREEEEEEEE [RRIYGRGYIRREEEEEEEE]	10000 µg/mL	5000 µg/mL	5000 µg/mL	
EEEEEEE (also: linker-FITC, site not given here)				release of peptide from surface ([1]; 4° C., pH 7 PBS (FIG. 3)): released; release of peptide from surface ([1]; 37° C., pH 7 PBS (FIG. 2)): released; release of peptide from surface [1, 4]: released; release of peptide from surface [1, 5]: released; release in comparison to RKLPDA and RKLPDARKLPDA ([1]; room temperature, pH 4 (FIG. 6)): Increased release
RRIYGRGYIRRRKLPDA [RRIYGRGYIRRRKLPDA]	10000 µg/mL	5000 µg/mL	10000 µg/mL	
DDDDDDD (DDDDDDD-{Linker-FITC′}; not fully specified; reading uncertain)				adherence of FITC-labelled binder peptide to surfaces [2]: adhered well to the surfaces; rate of release from hydroxyapatite into surrounding solution ([3]; disk incubated in 1 mg/ml peptide 1 hour, PBS 2 ml): fairly slow rate; time up to which increases in fluorescence (release) were observed ([3]; hydroxyapatite disk in PBS): up to 10 hours
GTCIYQRLNAF [GTCIYQRLNAF]	10000 µg/mL	10000 µg/mL	10000 µg/mL	
N=C(N)NCCC[C@H](NC(=O)[C@H](CCCNC(=N)N)NC(=O)[C@H](CCCNC(=N)N)NC(=O)[C@H](CCCNC(=N)N)NC(=O)[C@H](CCCNC(=N)N)NC(=O)[C@@H](N)CCCNC(=N)N)C(=O)O [RRRRRR]	39 µg/mL (≈ 0.0408 mM)	2500 µg/mL (≈ 2.62 mM)	5000 µg/mL (≈ 5.23 mM)	efficacy against P. aeruginosa (in words) (P. aeruginosa): surprisingly high efficacy
PACIGERRY [PACIGERRY]	10000 µg/mL	10000 µg/mL	10000 µg/mL	
CC(C)C[C@H](NC(=O)CNC(=O)[C@H](CS)NC(=O)[C@@H](NC(=O)CN)[C@@H](C)O)C(=O)N1CCC[C@H]1C(=O)NCC(=O)N[C@H](C(=O)N[C@@H](CCCCN)C(=O)N[C@@H](CS)C(=O)N[C@@H](CS)C(=O)O)[C@@H](C)O [GTCGLPGTKCC] (H-GTCGLPGTKCC-OH; N-terminus and C-terminus assumed)	5000 µg/mL (≈ 4.81 mM)	10000 µg/mL (≈ 9.62 mM)	5000 µg/mL (≈ 4.81 mM)	
EEEEEEEE	none	none	none	
RKLPDARKLPDA (also: linker-FITC, site not given here)				release of peptide from surface [1, 4]: not released; release of peptide from surface [1, 5]: not released
RRIYGRGYIRR [RRIYGRGYIRR]	2500 µg/mL	1250 µg/mL	2500 µg/mL	
